Reference: ChEMBL document CHEMBL6083289, “Deciphering the Therapeutic Potential of Novel Pentyloxyamide-Based Class I, IIb HDAC Inhibitors against Therapy-Resistant Leukemia” (J Med Chem, 2024)

Key:
[1] = target: T1, Protein deacetylase HDAC6 (Homo sapiens, UniProt Q9UBN7); experiment: Inhibition of human recombinant HDAC6 using RHKKAc as fluorogenic substrate incubated for 90 mins by fluorescence based analysis
T1 sequence (Q9UBN7 whole entry): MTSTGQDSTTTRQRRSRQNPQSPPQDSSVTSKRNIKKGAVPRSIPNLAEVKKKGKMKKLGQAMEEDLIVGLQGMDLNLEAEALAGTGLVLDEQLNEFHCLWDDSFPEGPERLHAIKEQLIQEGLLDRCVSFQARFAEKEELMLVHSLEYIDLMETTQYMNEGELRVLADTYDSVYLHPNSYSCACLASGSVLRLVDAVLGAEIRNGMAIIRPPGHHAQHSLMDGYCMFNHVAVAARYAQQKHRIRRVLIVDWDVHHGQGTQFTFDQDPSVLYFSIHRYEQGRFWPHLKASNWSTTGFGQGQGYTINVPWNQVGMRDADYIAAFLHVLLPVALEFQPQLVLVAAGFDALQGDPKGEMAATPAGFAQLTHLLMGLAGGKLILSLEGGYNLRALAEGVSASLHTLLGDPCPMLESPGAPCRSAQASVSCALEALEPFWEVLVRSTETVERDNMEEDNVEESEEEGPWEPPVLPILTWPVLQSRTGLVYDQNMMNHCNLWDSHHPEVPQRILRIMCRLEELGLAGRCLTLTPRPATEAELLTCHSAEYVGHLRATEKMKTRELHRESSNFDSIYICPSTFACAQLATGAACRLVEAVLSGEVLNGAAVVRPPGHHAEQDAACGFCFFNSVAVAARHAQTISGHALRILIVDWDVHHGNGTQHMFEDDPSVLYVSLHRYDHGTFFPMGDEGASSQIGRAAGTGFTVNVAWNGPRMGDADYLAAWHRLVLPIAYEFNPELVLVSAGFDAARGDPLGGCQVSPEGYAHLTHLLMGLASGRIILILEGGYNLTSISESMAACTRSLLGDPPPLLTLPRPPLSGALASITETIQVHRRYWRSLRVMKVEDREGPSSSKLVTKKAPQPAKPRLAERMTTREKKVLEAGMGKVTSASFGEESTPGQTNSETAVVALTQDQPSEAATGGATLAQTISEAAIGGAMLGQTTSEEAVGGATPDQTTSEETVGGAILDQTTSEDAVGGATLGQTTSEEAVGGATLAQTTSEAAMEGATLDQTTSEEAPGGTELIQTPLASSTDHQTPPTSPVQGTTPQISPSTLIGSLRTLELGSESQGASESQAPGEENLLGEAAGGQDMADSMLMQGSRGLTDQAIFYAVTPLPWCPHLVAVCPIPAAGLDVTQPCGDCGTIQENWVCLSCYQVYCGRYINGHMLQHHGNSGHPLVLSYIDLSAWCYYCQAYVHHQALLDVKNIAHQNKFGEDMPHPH

Histone deacetylase 4 = Histone deacetylase 4 (Homo sapiens, UniProt P56524)
Description: Inhibition of human recombinant HDAC4 using Boc-Lys(trifluoroacetyl)-AMC) as fluorogenic substrate incubated for 90 mins by fluorescence based analysis

Histone deacetylase 8 = target: T2, Histone deacetylase 8 (Homo sapiens, UniProt Q9BY41)
T2 sequence (Q9BY41 whole entry): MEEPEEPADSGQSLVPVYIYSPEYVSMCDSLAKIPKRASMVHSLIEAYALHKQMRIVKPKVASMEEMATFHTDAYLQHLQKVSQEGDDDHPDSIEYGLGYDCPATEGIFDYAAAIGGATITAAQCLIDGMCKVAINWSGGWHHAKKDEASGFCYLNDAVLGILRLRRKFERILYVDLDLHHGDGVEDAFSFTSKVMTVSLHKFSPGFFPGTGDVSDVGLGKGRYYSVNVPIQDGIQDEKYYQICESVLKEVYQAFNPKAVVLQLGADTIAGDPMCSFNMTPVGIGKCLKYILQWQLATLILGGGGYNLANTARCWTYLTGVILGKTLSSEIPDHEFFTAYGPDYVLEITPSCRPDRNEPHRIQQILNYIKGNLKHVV
Description: Inhibition of human recombinant HDAC8 using RHKAcKAc as fluorogenic substrate incubated for 90 mins by fluorescence based analysis

[2] = target: Histone deacetylase 3/Nuclear receptor corepressor 2 (HDAC3/NCoR2) (Homo sapiens, UniProt O15379); experiment: Inhibition of human recombinant Human HDAC3/NCOR2 using RHKKAc as fluorogenic substrate incubated for 90 mins by fluorescence based analysis; assay type: protein-complex assay
Histone deacetylase 11 = target: T3, Histone deacetylase 11 (Homo sapiens, UniProt Q96DB2)
T3 sequence (Q96DB2 whole entry): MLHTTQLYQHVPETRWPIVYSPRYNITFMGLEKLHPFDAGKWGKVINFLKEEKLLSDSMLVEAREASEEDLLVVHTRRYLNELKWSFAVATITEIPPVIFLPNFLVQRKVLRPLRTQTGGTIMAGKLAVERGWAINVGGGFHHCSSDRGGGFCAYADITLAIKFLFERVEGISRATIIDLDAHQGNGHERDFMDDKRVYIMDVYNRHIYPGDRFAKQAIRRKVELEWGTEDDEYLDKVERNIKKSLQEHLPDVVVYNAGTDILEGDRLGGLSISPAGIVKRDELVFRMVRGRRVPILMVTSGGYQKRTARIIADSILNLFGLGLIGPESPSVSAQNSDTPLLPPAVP

Histone deacetylase 1 = Histone deacetylase 1 (Homo sapiens, UniProt Q13547)
Description: Inhibition of human recombinant HDAC1 using RHKKAc as fluorogenic substrate incubated for 90 mins by fluorescence based analysis

HPBALL = experiment: Antiproliferative activity against human HPBALL cells assessed as inhibition of cell growth incubated for 72 hrs by celltiter-glo assay; assay type: functional, cell-based
K562 = experiment: cells; assay type: functional, cell-based; settings: Homo sapiens, K562, 72 h
HL-60 = experiment: cells; settings: Homo sapiens, HL-60, 72 h
[3] = Ratio of drug concentration in human blood to plasma; assay type: ADME, cell-free
[4] = Metabolic stability in human liver microsomes assessed as half life measured upto 60 mins in presence of NADPH regenerating system LC-MS analysis
[5] = AUClast in mouse at 50 mg/kg, po by LC/MS/MS analysis; settings: in vivo
[6] = Half life in mouse at 50 mg/kg, po by LC/MS/MS analysis; settings: in vivo
[7] = Tmax in Balb/c mouse at 50 mg/kg, po measured upto 6 hrs by LC-MS/MS analysis; assay type: ADME, organism-based; settings: in vivo
[8] = Half life in Balb/c mouse at 50 mg/kg, po measured upto 6 hrs by LC-MS/MS analysis; settings: in vivo
in vivo = settings: Balb/c, mouse, po, 50 mg/kg

Sequence of Histone deacetylase 4 (P56524 whole entry): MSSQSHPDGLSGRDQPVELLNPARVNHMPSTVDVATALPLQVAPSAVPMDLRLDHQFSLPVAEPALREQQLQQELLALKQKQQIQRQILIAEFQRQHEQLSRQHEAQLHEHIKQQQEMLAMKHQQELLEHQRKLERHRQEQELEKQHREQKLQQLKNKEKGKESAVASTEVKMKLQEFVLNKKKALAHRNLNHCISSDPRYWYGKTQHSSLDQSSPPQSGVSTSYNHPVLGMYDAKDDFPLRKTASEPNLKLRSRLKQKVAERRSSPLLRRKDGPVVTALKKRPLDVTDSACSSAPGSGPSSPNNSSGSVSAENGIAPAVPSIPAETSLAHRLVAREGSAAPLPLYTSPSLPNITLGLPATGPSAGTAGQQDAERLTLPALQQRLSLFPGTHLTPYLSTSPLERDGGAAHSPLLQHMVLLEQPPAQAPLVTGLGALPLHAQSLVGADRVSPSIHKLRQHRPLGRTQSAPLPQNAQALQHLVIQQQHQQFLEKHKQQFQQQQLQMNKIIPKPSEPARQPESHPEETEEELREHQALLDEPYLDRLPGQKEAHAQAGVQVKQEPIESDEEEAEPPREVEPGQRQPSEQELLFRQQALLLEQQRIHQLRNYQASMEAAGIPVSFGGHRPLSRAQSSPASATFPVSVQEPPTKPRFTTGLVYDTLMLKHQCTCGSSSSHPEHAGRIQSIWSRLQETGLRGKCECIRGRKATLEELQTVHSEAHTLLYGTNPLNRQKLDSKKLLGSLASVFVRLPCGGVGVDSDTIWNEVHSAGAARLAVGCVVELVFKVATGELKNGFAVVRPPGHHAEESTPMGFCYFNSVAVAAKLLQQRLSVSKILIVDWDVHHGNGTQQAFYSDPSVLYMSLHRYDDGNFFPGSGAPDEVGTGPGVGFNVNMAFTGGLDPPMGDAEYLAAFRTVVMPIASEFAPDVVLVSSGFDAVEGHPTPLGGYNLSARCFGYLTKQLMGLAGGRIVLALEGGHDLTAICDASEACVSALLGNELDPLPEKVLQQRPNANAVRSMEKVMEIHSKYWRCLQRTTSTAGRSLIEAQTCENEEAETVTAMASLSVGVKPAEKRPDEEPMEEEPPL
Sequence of Histone deacetylase 3/Nuclear receptor corepressor 2 (HDAC3/NCoR2) (O15379 whole entry): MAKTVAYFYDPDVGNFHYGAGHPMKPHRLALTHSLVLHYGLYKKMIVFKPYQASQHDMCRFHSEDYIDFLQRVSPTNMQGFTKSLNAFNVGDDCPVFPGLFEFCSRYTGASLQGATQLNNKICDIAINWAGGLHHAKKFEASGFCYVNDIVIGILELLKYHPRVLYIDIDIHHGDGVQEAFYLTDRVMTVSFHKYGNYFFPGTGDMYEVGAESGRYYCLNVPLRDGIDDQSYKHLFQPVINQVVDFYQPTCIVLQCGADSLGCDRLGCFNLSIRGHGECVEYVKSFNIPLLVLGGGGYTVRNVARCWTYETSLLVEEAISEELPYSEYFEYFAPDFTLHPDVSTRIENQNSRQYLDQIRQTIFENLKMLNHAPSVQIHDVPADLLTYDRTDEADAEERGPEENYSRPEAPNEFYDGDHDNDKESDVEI
Sequence of Histone deacetylase 3/Nuclear receptor corepressor 2 (HDAC3/NCoR2) (Q9Y618 whole entry, further chain): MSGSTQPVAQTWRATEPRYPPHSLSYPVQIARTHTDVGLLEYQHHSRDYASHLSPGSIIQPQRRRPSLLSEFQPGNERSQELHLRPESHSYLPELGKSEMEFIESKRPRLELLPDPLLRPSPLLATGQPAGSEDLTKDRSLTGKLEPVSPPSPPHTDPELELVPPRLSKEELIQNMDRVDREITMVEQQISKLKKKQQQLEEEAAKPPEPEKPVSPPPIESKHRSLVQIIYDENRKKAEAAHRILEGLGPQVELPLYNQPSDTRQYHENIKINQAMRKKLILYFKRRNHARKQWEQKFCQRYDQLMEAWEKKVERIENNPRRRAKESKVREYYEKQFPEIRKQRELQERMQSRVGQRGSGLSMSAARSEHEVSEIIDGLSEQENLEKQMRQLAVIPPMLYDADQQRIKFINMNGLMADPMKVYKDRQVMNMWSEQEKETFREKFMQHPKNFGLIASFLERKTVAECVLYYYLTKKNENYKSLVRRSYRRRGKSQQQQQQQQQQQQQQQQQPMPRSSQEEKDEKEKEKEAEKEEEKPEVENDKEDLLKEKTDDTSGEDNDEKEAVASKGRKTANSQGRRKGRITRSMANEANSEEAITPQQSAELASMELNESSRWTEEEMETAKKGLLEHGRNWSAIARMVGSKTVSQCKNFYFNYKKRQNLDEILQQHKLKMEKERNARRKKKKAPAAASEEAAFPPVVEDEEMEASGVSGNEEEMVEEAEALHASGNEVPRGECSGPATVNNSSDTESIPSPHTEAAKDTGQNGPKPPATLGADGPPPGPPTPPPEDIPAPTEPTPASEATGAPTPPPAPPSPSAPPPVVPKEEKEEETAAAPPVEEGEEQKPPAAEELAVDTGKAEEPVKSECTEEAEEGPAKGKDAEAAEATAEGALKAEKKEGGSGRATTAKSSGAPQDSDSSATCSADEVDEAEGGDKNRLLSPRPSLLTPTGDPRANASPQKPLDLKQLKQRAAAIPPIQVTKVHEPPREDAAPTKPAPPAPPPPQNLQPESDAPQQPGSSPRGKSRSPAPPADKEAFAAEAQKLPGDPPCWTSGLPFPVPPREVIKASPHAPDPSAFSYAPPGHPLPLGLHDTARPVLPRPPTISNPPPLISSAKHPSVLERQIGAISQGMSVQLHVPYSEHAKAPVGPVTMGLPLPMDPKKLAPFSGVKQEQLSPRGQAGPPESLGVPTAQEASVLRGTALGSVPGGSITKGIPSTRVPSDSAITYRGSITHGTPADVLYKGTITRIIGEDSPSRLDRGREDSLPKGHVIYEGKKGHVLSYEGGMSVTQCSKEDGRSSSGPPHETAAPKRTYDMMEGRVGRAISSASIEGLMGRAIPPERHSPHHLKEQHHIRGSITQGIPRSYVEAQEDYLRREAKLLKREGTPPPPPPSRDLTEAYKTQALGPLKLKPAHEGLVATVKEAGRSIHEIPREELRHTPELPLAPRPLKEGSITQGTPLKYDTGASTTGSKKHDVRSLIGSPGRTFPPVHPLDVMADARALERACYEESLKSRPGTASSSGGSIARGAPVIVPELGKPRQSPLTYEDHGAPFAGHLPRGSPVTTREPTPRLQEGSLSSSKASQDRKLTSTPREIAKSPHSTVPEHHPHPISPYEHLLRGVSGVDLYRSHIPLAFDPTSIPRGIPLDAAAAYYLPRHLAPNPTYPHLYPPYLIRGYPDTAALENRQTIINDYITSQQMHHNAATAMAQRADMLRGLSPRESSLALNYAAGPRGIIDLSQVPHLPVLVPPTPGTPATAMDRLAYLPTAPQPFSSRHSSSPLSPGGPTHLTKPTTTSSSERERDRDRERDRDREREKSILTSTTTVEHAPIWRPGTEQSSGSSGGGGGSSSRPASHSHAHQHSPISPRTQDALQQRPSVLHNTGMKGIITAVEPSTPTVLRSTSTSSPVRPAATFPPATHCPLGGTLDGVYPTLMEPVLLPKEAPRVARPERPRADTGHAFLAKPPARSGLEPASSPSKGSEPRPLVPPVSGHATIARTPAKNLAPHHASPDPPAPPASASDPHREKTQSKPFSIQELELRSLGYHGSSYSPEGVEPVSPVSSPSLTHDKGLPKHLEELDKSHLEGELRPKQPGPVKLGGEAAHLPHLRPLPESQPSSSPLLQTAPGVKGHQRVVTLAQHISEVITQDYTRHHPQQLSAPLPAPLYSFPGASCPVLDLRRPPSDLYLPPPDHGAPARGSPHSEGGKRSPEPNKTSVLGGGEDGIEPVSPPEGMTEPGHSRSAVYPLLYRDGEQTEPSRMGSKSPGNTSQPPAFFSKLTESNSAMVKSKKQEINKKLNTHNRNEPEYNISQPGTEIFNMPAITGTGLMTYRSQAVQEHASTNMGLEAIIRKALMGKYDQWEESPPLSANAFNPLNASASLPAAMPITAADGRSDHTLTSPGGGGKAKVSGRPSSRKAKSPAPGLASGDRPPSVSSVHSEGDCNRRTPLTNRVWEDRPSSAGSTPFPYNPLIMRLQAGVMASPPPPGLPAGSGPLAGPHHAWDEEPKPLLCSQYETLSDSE
Sequence of Histone deacetylase 1 (Q13547 whole entry): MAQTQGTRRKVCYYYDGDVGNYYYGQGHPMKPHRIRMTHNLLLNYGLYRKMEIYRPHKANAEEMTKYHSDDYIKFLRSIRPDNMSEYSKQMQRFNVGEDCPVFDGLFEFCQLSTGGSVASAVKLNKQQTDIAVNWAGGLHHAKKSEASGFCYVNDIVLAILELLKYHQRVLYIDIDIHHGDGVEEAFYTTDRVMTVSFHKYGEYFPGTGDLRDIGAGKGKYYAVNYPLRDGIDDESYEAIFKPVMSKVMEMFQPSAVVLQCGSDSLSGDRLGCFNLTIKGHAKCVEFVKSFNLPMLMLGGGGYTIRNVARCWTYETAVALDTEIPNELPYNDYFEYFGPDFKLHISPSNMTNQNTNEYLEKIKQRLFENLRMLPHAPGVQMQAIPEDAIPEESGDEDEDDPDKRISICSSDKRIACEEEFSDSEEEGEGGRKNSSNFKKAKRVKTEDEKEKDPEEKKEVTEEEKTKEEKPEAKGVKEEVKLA

O=C(CCCCCONC(=O)c1nc(-c2ccc(C(F)(F)F)cc2)cs1)NO
IC50 [1]: 0.108 µM
IC50 (Histone deacetylase 4): > 100 µM
IC50 (Histone deacetylase 8): 4.86 µM

COc1ccccc1-c1csc(C(=O)NOCCCCCC(=O)NO)n1
IC50 [1]: 0.026 µM
IC50 (Histone deacetylase 4): > 100 µM
IC50 (Histone deacetylase 8): 2.16 µM

O=C(CCCCCONC(=O)c1nc(-c2ccc(F)cc2)cs1)NO
IC50 [1]: 0.045 µM
IC50 (Histone deacetylase 4): > 100 µM
IC50 (Histone deacetylase 8): 6.38 µM

O=C(CCCCCONC(=O)c1nc(-c2ccc(N3CCCC3)cc2)cs1)NO
IC50 [1]: 0.064 µM
IC50 [2]: 0.048 µM
IC50 (Histone deacetylase 11): 36 µM
IC50 (Histone deacetylase 4): > 100 µM
IC50 (Histone deacetylase 8): 4.8 µM
IC50 (Histone deacetylase 1): 0.012 µM

O=C(CCCCCONC(=O)c1nc(-c2ccccc2F)cs1)NO
IC50 [1]: 0.051 µM
IC50 (Histone deacetylase 4): > 100 µM
IC50 (Histone deacetylase 8): 1.29 µM

O=C(CCCCCONC(=O)c1nc(-c2cc3ccccc3o2)cs1)NO
IC50 [1]: 0.03 µM
IC50 (Histone deacetylase 4): > 100 µM
IC50 (Histone deacetylase 8): 3.68 µM

O=C(CCCCCONC(=O)c1nc(-c2cccc(F)c2)cs1)NO
IC50 [1]: 0.047 µM
IC50 (Histone deacetylase 4): > 100 µM
IC50 (Histone deacetylase 8): 2.32 µM

COc1cccc(-c2csc(C(=O)NOCCCCCC(=O)NO)n2)c1
IC50 [1]: 0.026 µM
IC50 (Histone deacetylase 4): > 100 µM
IC50 (Histone deacetylase 8): 5.2 µM

Cc1ccc(-c2csc(C(=O)NOCCCCCC(=O)NO)n2)cc1
IC50 [1]: 0.064 µM
IC50 (Histone deacetylase 4): > 100 µM
IC50 (Histone deacetylase 8): 7.01 µM

O=C(CCCCCONC(=O)c1nc(-c2ccsc2)cs1)NO
IC50 [1]: 0.049 µM
IC50 (Histone deacetylase 4): > 100 µM
IC50 (Histone deacetylase 8): 5.41 µM

COc1ccc(-c2csc(C(=O)NOCCCCCC(=O)NO)n2)cc1
IC50 [1]: 0.038 µM
IC50 [2]: 0.013 µM
IC50 (Histone deacetylase 11): 26 µM
IC50 (Histone deacetylase 4): > 100 µM
IC50 (Histone deacetylase 8): 5.75 µM
IC50 (Histone deacetylase 1): 0.04 µM

O=C(CCCCCONC(=O)c1nc(-c2ccccc2)cs1)NO
IC50 [1]: 0.075 µM
IC50 (Histone deacetylase 4): > 100 µM
IC50 (Histone deacetylase 8): 4.01 µM

O=C(CCCCCONC(=O)c1nc(-c2cccs2)cs1)NO
IC50 [1]: 0.081 µM
IC50 (Histone deacetylase 4): > 100 µM
IC50 (Histone deacetylase 8): 2.51 µM

O=C(/C=C/c1cccc(S(=O)(=O)Nc2ccccc2)c1)NO [BELINOSTAT]
IC50 (HPBALL): 0.269 µM
IC50 (K562): 0.218 µM
IC50 (HL-60): 0.158 µM

COc1ccccc1OCCNCC(O)COc1cccc2[nH]c3ccccc3c12 (configuration not stated) [CARVEDILOL]
blood plasma ratio [3]: 0.76

O=C(CCCCCCNC(=O)c1cnc(N(c2ccccc2)c2ccccc2)nc1)NO [RICOLINOSTAT]
IC50 (HPBALL): 2.58 µM
IC50 (K562): 2.93 µM
IC50 (HL-60): 2.19 µM

CC(=O)Nc1ccc(C(=O)Nc2ccccc2N)cc1 [TACEDINALINE]
IC50 (HPBALL): 4.7 µM
IC50 (K562): 5.33 µM
IC50 (HL-60): 1.58 µM

O=C(CCCCCCC(=O)Nc1ccccc1)NO [VORINOSTAT]
IC50 (HPBALL): 0.824 µM
half-life at 1 h [4]: 35.9 min
AUC(0-t) [5]: 619 ng·h/mL
half-life [6]: 45 min
Tmax [7]: 4.8 min
half-life at 6 h [8]: 48 min
AUC(0-t) at 6 h (in vivo): 347 ng·h/mL
